Experimental data as given in PMC3836618, “The Flux of Phenolic Compounds through Silicone Membranes” (Pharmaceutics, 2013).

Tests used:
[1] = Maximum flux through silicone membrane from water (diffusion cell, saturated donor suspension, 32 °C)
Description: The measurement of maximum flux through silicone was performed according to a literature procedure at 32 °C, except that the silicone membrane was in contact with the receptor for only 24 h to condition them. The receptor was a 7.1 pH phosphate buffer.
After the membranes were conditioned, the receptor phases were changed and the donor suspensions (first application, 1 mL) were applied; n = 3. The donor cells were sealed by Parafilm. Samples were taken from the receptor every 2–3 h after application. Following sample collection, the receptor phases were changed to ensure sink conditions, and the donor suspensions were either changed or had more solid/oil added to the existing suspension, depending upon the visible extent of depletion. After 4–5 sampling intervals, the donor suspensions were removed with methanol and the receptors were changed. The membranes were leached with methanol in the donor phase for 48–72 h with samples taken and receptor phases changed every 12–24 h to remove any residual phenol in the membrane.
(§1) The flux values of the first and second application were determined by UV absorption.

[2] = design: method as in PMID 22602, PMID 16982163; conditions: cited from earlier work; for Exp. log JMHAQ: experimental maximum flux through human stratum corneum from water, Table 2; for Log JMHAQ: maximum flux through human stratum corneum from water, log value, Table 1
[3] = design: method as in PMID 22602, PMID 16982163; conditions: solubility in water, log value; cited from earlier work
[4] = design: method as in PMID 22602, PMID 16982163; conditions: octanol:water partition coefficient; cited from earlier work
[5] = design: method as in PMID 22602, PMID 16982163; conditions: solubility in octanol, log value; cited from earlier work
[6] = Flux of standard solute theophylline through silicone from propylene glycol (membrane integrity check, second application); format: in vitro ADME; conditions: each membrane after methanol leaching
Description: as §1

[7] = design: method as in PMID 18588972; conditions: donor suspension in propylene glycol; cited from earlier work
[8] = experimental maximum flux through silicone from water, Table 2
[9] = maximum flux through silicone from water, log value, 32 °C, receptor pH 7.1 phosphate buffer, n = 3, Table 1

Row | Structure (SMILES) | Exp. log JMPAQ ([1]; not told) [μmole cm^−2 h^−1] | Log JMPAQ ([1]; not told, pH 7.1) [μmole cm^−2 h^−1] | Exp. log JMHAQ [2] [μmole cm^−2 h^−1] | Log JMHAQ [2] [μmole cm^−2 h^−1] | Log SAQ [3] [μmole cm^−3] | Log KOCT:AQ [4] | Log SOCT [5] [μmole cm^−3] | log JMPPG (log flux of theophylline through silicone from PG) [6] | log JMPPG (log flux of theophylline through silicone from PG), literature value [7] [log units] | Exp. log JMPAQ [1, 8] [μmole cm^−2 h^−1] | Log JMPAQ [1, 9] [μmole cm^−2 h^−1]
1 | Cc1cc(O)ccc1Cl [compound 1, 4-chloro-3-methyl] | 1.01 | 1.01 | 0.29 | 0.29 | 1.55 | 3.10 | 4.65 |  |  |  | 
2 | Cn1c(=O)c2[nH]cnc2n(C)c1=O [theophylline] |  |  |  |  |  |  |  | within the standard deviation of the literature value | −2.68 ± 0.12 |  | 
3 | Cc1cc(O)cc(C)c1Cl [compound 2, 4-chloro-3,5-dimethylphenol] |  |  | −0.95 | −0.95 | 0.28 | 3.39 | 3.67 |  |  | −0.027 | −0.027
4 | Oc1ccc(Cl)cc1Cl [compound 5, 2,4-dichloro] | 1.16 | 1.16 | 0.27 | 0.27 | 1.49 | 3.08 | 4.57 |  |  |  | 
5 | Cc1ccc(O)cc1 [compound 4, 4-methyl] |  |  | 0.53 | 0.53 | 2.29 | 1.95 | 4.24 |  |  | 1.62 | 1.62
6 | Cc1cccc(O)c1 [compound 7, 3-methylphenol] |  |  | 0.54 | 0.54 | 2.36 | 1.96 | 4.32 |  |  | 1.61 | 1.61
